pIC50: −log10 of the molar value.
What was measured:
[1] = system: L1210 leukemia, Mdr; assay: Cytotoxicity in tumor cell culture, MTT assay; type: cell-based, murine; conditions: Mus musculus, L1210; MTT assay, multidrug-resistant; read-out: IC50 against human mouse tumors, L1210 leukemia Mdr
Summary of the method: (§1)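 N-substituted 2-cyanoaziridine-1-carboxamides were tested against a panel of human tumor lines and murine leukemia cells. L1210 Mdr is a murine multidrug-resistant, P-glycoprotein-positive leukemia line.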

[2] = system: L1210 leukemia, Sens; assay: Cytotoxicity in tumor cell culture, MTT assay; type: cell-based, murine; conditions: Mus musculus, L1210; MTT assay; read-out: IC50 against human mouse tumors, L1210 leukemia Sens
Summary of the method: as §1

[3] = system: 8226 myeloma, Sens (drug-sensitive); assay: Cytotoxicity in tumor cell culture, SRB assay; type: cell-based, human; conditions: Homo sapiens; drug-sensitive line; read-out: IC50 against human mouse tumors, 8226 myeloma Sens
Summary of the method: as §1

[4] = system: A-549 lung; assay: Cytotoxicity in tumor cell culture, SRB assay; type: cell-based, human; conditions: Homo sapiens, A549; read-out: IC50 against human mouse tumors, A-549 lung
Summary of the method: as §1

[5] = system: A375 melan; assay: Cytotoxicity in tumor cell culture, SRB assay; type: cell-based, human; conditions: Homo sapiens, A-375; read-out: IC50 against human mouse tumors, A375 melan
Summary of the method: as §1

[6] = system: MCF7 breast, Dox (doxorubicin-resistant); assay: Cytotoxicity in tumor cell culture, SRB assay; type: cell-based, human; conditions: Homo sapiens, MCF7; doxorubicin-resistant; read-out: IC50 against human mouse tumors, MCF7 breast Dox
Summary of the method: as §1

[7] = system: MCF7 breast, Sens; assay: Cytotoxicity in tumor cell culture, SRB assay; type: cell-based, human; conditions: Homo sapiens, MCF7; read-out: IC50 against human mouse tumors, MCF7 breast Sens
Summary of the method: as §1

[8] = system: MCF7 breast, mitox (mitoxantrone-resistant); assay: Cytotoxicity in tumor cell culture, SRB assay; type: cell-based, human; conditions: Homo sapiens, MCF7; mitoxantrone-resistant; read-out: IC50 against human mouse tumors, MCF7 breast mitox
Summary of the method: as §1

[9] = system: OVCAR3 ovarian; assay: Cytotoxicity in tumor cell culture, SRB assay; type: cell-based, human; conditions: Homo sapiens, OVCAR-3; read-out: IC50 against human mouse tumors, OVCAR3 ovarian
Summary of the method: as §1

[10] = system: 8226 myeloma, Res (imexon-resistant); assay: Cytotoxicity in tumor cell culture, SRB assay; type: cell-based; conditions: Homo sapiens; line made resistant to imexon; read-out: IC50 against human mouse tumors, 8226 myeloma Res
Summary of the method: as §1

[11] = system: WiDr colon, Sens; assay: Cytotoxicity in tumor cell culture, SRB assay; type: cell-based; conditions: Homo sapiens, WiDr; read-out: IC50 against human mouse tumors, WiDr colon Sens
Summary of the method: as §1

[12] = system: WiDr colon, res; assay: Cytotoxicity in tumor cell culture, SRB assay; type: cell-based; conditions: Homo sapiens, WiDr; multidrug-resistant; read-out: IC50 against human mouse tumors, WiDr colon res
Summary of the method: as §1

[13] = system: panel of tumor cells in culture; assay: Panel of tumor cell cultures (all lines of Table 3); type: cell-based, human, murine
Source text: A set of twenty 2-cyanoaziridine-1-carboxamides was synthesized from 2-cyanoaziridine and appropriate isocyanates. […] It is contemplated that one or more of these 2-cyanoaziridine-1-carboxamides derivatives may be used in combination with a lipid and/or another agent.

[14] = system: Breast (cloned fresh human tumors); assay: Human tumor cloning assay, [3H]thymine uptake by tumor-colony-forming cells; type: cell-based; conditions: No. tested 4
Protocol: (§2) Assays of antitumor agents against fresh human tumor-colony-forming cells provide results that predict better the responses obtained in treating cancer patients than those obtained with long established human cell lines (Salmon et al., 1981). For this reason, the N-phenyl derivative 13 was tested against a variety of fresh human tumors obtained at the Arizona Cancer Center using established methodology (Salmon and Hersh, 1994).

[15] = system: Lung (cloned fresh human tumors); assay: as above; type: cell-based; conditions: No. tested 2
Protocol: as §2

[16] = system: Melanoma (cloned fresh human tumors); assay: as above; type: cell-based; conditions: No. tested 10
Protocol: as §2

[17] = system: Myeloma (cloned fresh human tumors); assay: as above; type: cell-based; conditions: No. tested 3
Protocol: as §2

[18] = system: Other Gynecologic (cloned fresh human tumors); assay: as above; type: cell-based; conditions: No. tested 4
Protocol: as §2

[19] = system: Ovary (cloned fresh human tumors); assay: as above; type: cell-based; conditions: No. tested 12
Protocol: as §2

[20] = system: Sarcoma (cloned fresh human tumors); assay: as above; type: cell-based; conditions: Sarcoma, No. tested 8
Protocol: as §2

[21] = system: Stomach (cloned fresh human tumors); assay: as above; type: cell-based; conditions: No. tested 1
Protocol: as §2

[22] = system: transplanted syngeneic tumors; conditions: rodents; cited from earlier work
[23] = system: human lymphoma, melanoma, and prostate cancer cell lines; conditions: cited from earlier work
[24] = cited from earlier work
[25] = system: fresh human tumor cells; conditions: cited from earlier work

N=C1NC(=O)N2CC12 (stereo not drawn) [Imexon, 4-imino-1,3-diazabicyclo[3.1.0]hexan-2-one]
pIC50 [1]: 3.32
pIC50 [2]: 3.21
pIC50 [3]: 4.77
pIC50 [4]: < 4.14
pIC50 [5]: 3.49
pIC50 [6]: < 4.74
pIC50 [7]: < 4.74
pIC50 [8]: < 4.74
pIC50 [9]: 3.19
pIC50 [10]: 3.94
pIC50 [11]: < 4.14
pIC50 [12]: < 4.14
selectivity among tumor cell types [13]: selective for multiple myeloma
no. sensitive ([14]; Imexon 0.1 μM): 0
no. sensitive ([14]; Imexon 1.0 μM): 2
no. sensitive ([14]; Imexon 10 μM): 3
no. sensitive ([15]; Imexon 0.1 μM): 0
no. sensitive ([15]; Imexon 1.0 μM): 0
no. sensitive ([15]; Imexon 10 μM): 2
no. sensitive ([16]; Imexon 0.1 μM): 3/5
no. sensitive ([16]; Imexon 1.0 μM): 4
no. sensitive ([16]; Imexon 10 μM): 8
no. sensitive ([17]; Imexon 0.1 μM): 3
no. sensitive ([17]; Imexon 1.0 μM): 3
no. sensitive ([17]; Imexon 10 μM): 3
no. sensitive ([18]; Imexon 0.1 μM): 0
no. sensitive ([18]; Imexon 1.0 μM): 0
no. sensitive ([18]; Imexon 10 μM): 1
no. sensitive ([19]; Imexon 0.1 μM): 4
no. sensitive ([19]; Imexon 1.0 μM): 3/11
no. sensitive ([19]; Imexon 10 μM): 8
no. sensitive ([20]; Imexon 0.1 μM): 0/2
no. sensitive ([20]; Imexon 1.0 μM): 2
no. sensitive ([20]; Imexon 10 μM): 5
no. sensitive ([21]; Imexon 0.1 μM): 0
no. sensitive ([21]; Imexon 1.0 μM): 0
no. sensitive ([21]; Imexon 10 μM): 1
activity against transplanted syngeneic tumors [22]: active
activity against human tumor cell lines in SCID mice [23]: active
tolerability ([24]; Phase I): well-tolerated
clinical response ([24]; patients with lung cancer, breast cancer, or liver cancer): objective responses or stabilization of the disease
cytotoxicity in clonogenic assay [25]: selectively cytotoxic to multiple myeloma

— patent publication US20030129222A1, “Liposomal imexon” (priority 2000, published 2003)
